Data on 1 molecule can be found in patent US20030236175A1, “Process for well fluids base oil via metathesis of alpha-olefins” (priority 2002, published 2003).

The data set has as its system leptocheirus plumulosus. It counts as in vivo. From the text:
This protocol uses leptocheirus plumulosus in a 10-day sediment toxicity test using a reference standard C16-18 IO (internal olefin) (sometimes also designated as C16-C18 IO, C1618 IO, or C16-18 IO) having approximately 65% C16 and 35% C18 olefin.

Turning to `CCCCCCCCC=CCCCCCCCC` [Example 11, 9-octadecene], where the note is “LC50, 10-day sediment toxicity test, leptocheirus plumulosus”, the “Toxicity, mg/kg” value is on record as 11,279 mg/kg. The Toxicity ratio (ratio of LC50 values, sample vs reference standard C16-18 IO (Equation 1), passing <= 1.0) stood at 0.63.
